Reference: patent publication US8217085B2 (priority 2009, dated 2012)
Where two headings read alike, the source gives them in different places.

Assays:
[1] = tested on: drug sensitive Staphylococcus aureus; conditions: Etest system; cited from earlier work
[2] = tested on: ATCC strain 43300 Staphylococcus aureus; conditions: oxacillin alone, 12 μg/ml, 30 μg/ml and 60 μg/ml
Procedure: Additional antibiotic was added every 24 hours.
USP<51> Antimicrobial Effectiveness protocol was used as the template experimental paradigm. […] All concentrations were plated out to the 10^−7 dilutionsto ascertain cfu/ml. […] Additional antibiotic was added at the initial concentration every 24 hours.
ATCC strain 43300 Staphylococcus aureus was streaked out for isolations. An isolated colony was chosen, streaked again and incubated. Isolate was chosen and then diluted to a McFarland standard of one. The estimated value was then taken to inoculate tubes containing growth media and 12, 30 or 60 μg/ml oxacillin with approximately 10^5 cfu/ml. These tubes were incubated and plated for counting cfu.
Material was calculated on a 10 ml volume. Sterile oxacillin was added to each experimental condition to a final concentration of 12, 30 or 60 μg/ml antibiotic.
All tubes were then inoculated with a dilution of the selected ATCC strain 43300 Staphylococcus aureus clone giving a final level of colony forming units of 3.3×10^5/ml (log=5.52). The tubes were incubated at 25° C. and mixed periodically. Antibiotic was re-inoculated every 24 hours at the initial concentration to maintain pressure on the organism. Plating was done at 24, 48, 72, and 120 hours. Each condition was plated by diluting 1 ml of growth material into 9 ml of MLB diluent broth. […] This mixture was serial diluted down to 10^−7 with 1 ml placed in triplicate in a sterile petri dish at each dilution point. 20 mls of TSA was added to each dilution, swirled and allowed to solidify. All dilutions were placed in a 35° C. incubator for 24 to 72 hours. Bacterial colonies on each plate were counted and the average taken then changed into log format. Any cfu/ml observed greater than 3.3×10^5 (log=5.5) were recorded as >3.3×10^5.

[3] = tested on: ATCC strain 43300 Staphylococcus aureus; conditions: methicillin alone, 12 μg/ml, 30 μg/ml and 60 μg/ml
Procedure: Additional antibiotic was added every 24 hours. The growth periods tested were 24 (FIG. 5), 48, 72, 96 and 120 hours.
USP<51> Antimicrobial Effectiveness protocol was used as the template experimental paradigm. […] All concentrations were plated out to the 10^−7 dilutions to ascertain cfu/ml. […] Additional antibiotic was added at the initial concentration every 24 hours.
ATCC strain 43300 Staphylococcus aureus was streaked out for isolations. An isolated colony was chosen, streaked again and incubated. Isolate was chosen and then diluted to a McFarland standard of one. The estimated value was then taken to inoculate tubes containing growth media and 12, 30 or 60 μg/ml methicillin with approximately 10^5 cfu/ml. These tubes were incubated and plated for counting cfu.
Material was calculated on a 10 ml volume. Sterile methicillin was added to each experimental condition to a final concentration of 12, 30 or 60 μg/ml antibiotic. Lactose Broth positive controls both with and without the 12 μg/ml, 30 μg/ml, 60 μg/ml antibiotic were inoculated with MRSA. […] Tubes were set up in singlet, but plated in triplicate, as described below.
All tubes were then inoculated with a dilution of the selected ATCC strain 43300 Staphylococcus aureus clone giving a final level of colony forming units of 1.49×10^5/ml (log=5.17). The tubes were incubated at 25° C. and mixed periodically. Antibiotic was re-inoculated every 24 hours at the initial concentration to maintain pressure on the organism. Plating was done at 24, 48, 72, and 120 hours. Each condition was plated by diluting 1 ml of growth material into 9 ml of MLB diluent broth. […] This mixture was serial diluted down to 10^−7 with 1 ml placed in triplicate in a sterile petri dish at each dilution point. 20 mls of TSA was added to each dilution, swirled and allowed to solidify. All dilutions were placed in a 35° C. incubator for 24 to 72 hours. Bacterial colonies on each plate were counted and the average taken then changed into log format.

SMILES	MIC [1]	change in colony forming units from initial inoculum [2]	change in colony forming units from initial inoculum [3]
Cc1onc(-c2ccccc2)c1C(=O)N[C@@H]1C(=O)N2[C@@H]1SC(C)(C)[C@@H]2C(=O)O [oxacillin, reference compound]	≤ 2 µg/mL	no significant decrease in colony forming units	
COc1cccc(OC)c1C(=O)N[C@@H]1C(=O)N2[C@@H]1SC(C)(C)[C@@H]2C(=O)O [methicillin, reference compound]			no significant decrease in colony forming units
